Data as given in the supplement of paper PMC10307832.

Tests used:
Assay in all cases: relative viability (nuclei count vs DMSO), 5 days (fraction); higher = more cells survive
NCI-H522 = test system: NCI-H522
Method in brief: (§1)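 For relative viability, nuclei counts in treated wells were divided by those in vehicle wells. Lung cancer cell lines had been pin-tool dosed in 1536-well plates the day after seeding and cultured for 5 days, then fixed and stained in one step (final 0.05% Triton X-100, 1% formaldehyde, 1 ug/ml Hoechst) and imaged at 4×. Doses were one drug alone or a fixed anchor-drug dose plus five library-drug doses (not always all listed) in √10 steps, and values are duplicate-plate medians.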

NCI-H3122 = test system: NCI-H3122
Method in brief: as §1

NCI-H596 = test system: NCI-H596
Method in brief: as §1

NCI-H727 = test system: NCI-H727
Method in brief: as §1

HOP-62 = test system: HOP-62
Method in brief: as §1

NCI-H2170 = test system: NCI-H2170
Method in brief: as §1

ABC-1 = test system: ABC-1
Method in brief: as §1

SK-MES-1 = test system: SK-MES-1
Method in brief: as §1

NCI-H1944 = test system: NCI-H1944
Method in brief: as §1

EMC-BAC-2 = test system: EMC-BAC-2
Method in brief: as §1

SW 900 = test system: SW 900
Method in brief: as §1

LK-2 = test system: LK-2
Method in brief: as §1

A-427 = test system: A-427
Method in brief: as §1

NCI-H322M = test system: NCI-H322M
Method in brief: as §1

NCI-H2009 = test system: NCI-H2009
Method in brief: as §1

LXF-289 = test system: LXF-289
Method in brief: as §1

HARA = test system: HARA
Method in brief: as §1

NCI-H2228 = test system: NCI-H2228
Method in brief: as §1

SW 1573 = test system: SW 1573
Method in brief: as §1

PC-3 [JPC-3] = test system: PC-3 [JPC-3]
Method in brief: as §1

NCI-H1792 = test system: NCI-H1792
Method in brief: as §1

NCI-H1993 = test system: NCI-H1993
Method in brief: as §1

Compound: COc1nc(C)cnc1NS(=O)(=O)c1cccnc1-c1ccc(-c2nnco2)cc1 [Zibotentan] + Cc1nc(Nc2ncc(C(=O)Nc3c(C)cccc3Cl)s2)cc(N2CCN(CCO)CC2)n1 [Dasatinib] (partner 0.075 µM)
- relative viability (NCI-H522; first compound 0.08 µM): 0.479
- relative viability (NCI-H522; first compound 0.253 µM): 0.839
- relative viability (NCI-H522; first compound 0.8 µM): 0.974
- relative viability (NCI-H522; first compound 2.53 µM): 0.964
- relative viability (NCI-H3122; first compound 0.08 µM): 0.807
- relative viability (NCI-H3122; first compound 0.253 µM): 0.817
- relative viability (NCI-H3122; first compound 0.8 µM): 0.701
- relative viability (NCI-H3122; first compound 2.53 µM): 0.751
- relative viability (NCI-H596; first compound 0.08 µM): 0.68
- relative viability (NCI-H596; first compound 0.253 µM): 0.549
- relative viability (NCI-H596; first compound 0.8 µM): 0.538
- relative viability (NCI-H596; first compound 2.53 µM): 0.561
- relative viability (NCI-H727; first compound 0.08 µM): 0.333
- relative viability (NCI-H727; first compound 0.253 µM): 0.251
- relative viability (NCI-H727; first compound 0.8 µM): 0.279
- relative viability (NCI-H727; first compound 2.53 µM): 0.372
- relative viability (HOP-62; first compound 0.08 µM): 0.706
- relative viability (HOP-62; first compound 0.253 µM): 0.634
- relative viability (HOP-62; first compound 0.8 µM): 0.719
- relative viability (HOP-62; first compound 2.53 µM): 0.758
- relative viability (NCI-H2170; first compound 0.08 µM): 0.59
- relative viability (NCI-H2170; first compound 0.253 µM): 0.612
- relative viability (NCI-H2170; first compound 0.8 µM): 0.52
- relative viability (NCI-H2170; first compound 2.53 µM): 0.469
- relative viability (ABC-1; first compound 0.08 µM): 0.568
- relative viability (ABC-1; first compound 0.253 µM): 0.572
- relative viability (ABC-1; first compound 0.8 µM): 0.548
- relative viability (ABC-1; first compound 2.53 µM): 0.556
- relative viability (SK-MES-1; first compound 0.08 µM): 0.333
- relative viability (SK-MES-1; first compound 0.253 µM): 0.261
- relative viability (SK-MES-1; first compound 0.8 µM): 0.473
- relative viability (SK-MES-1; first compound 2.53 µM): 0.363
- relative viability (NCI-H1944; first compound 0.08 µM): 0.193
- relative viability (NCI-H1944; first compound 0.253 µM): 0.211
- relative viability (NCI-H1944; first compound 0.8 µM): 0.221
- relative viability (NCI-H1944; first compound 2.53 µM): 0.224
- relative viability (EMC-BAC-2; first compound 0.08 µM): 0.338
- relative viability (EMC-BAC-2; first compound 0.8 µM): 0.295
- relative viability (EMC-BAC-2; first compound 2.53 µM): 0.369
- relative viability (SW 900; first compound 0.08 µM): 0.633
- relative viability (SW 900; first compound 0.253 µM): 0.59
- relative viability (SW 900; first compound 0.8 µM): 0.562
- relative viability (SW 900; first compound 2.53 µM): 0.911
- relative viability (LK-2; first compound 0.08 µM): 0.293
- relative viability (LK-2; first compound 0.253 µM): 0.221
- relative viability (LK-2; first compound 0.8 µM): 0.275
- relative viability (LK-2; first compound 2.53 µM): 0.318
- relative viability (A-427; first compound 0.08 µM): 0.908
- relative viability (A-427; first compound 0.253 µM): 0.69
- relative viability (A-427; first compound 0.8 µM): 0.7
- relative viability (A-427; first compound 2.53 µM): 0.828
- relative viability (NCI-H322M; first compound 0.08 µM): 0.235
- relative viability (NCI-H322M; first compound 0.253 µM): 0.245
- relative viability (NCI-H322M; first compound 0.8 µM): 0.27
- relative viability (NCI-H322M; first compound 2.53 µM): 0.269
- relative viability (NCI-H2009; first compound 0.08 µM): 0.287
- relative viability (NCI-H2009; first compound 0.253 µM): 0.28
- relative viability (NCI-H2009; first compound 0.8 µM): 0.306
- relative viability (NCI-H2009; first compound 2.53 µM): 0.292
- relative viability (LXF-289; first compound 0.08 µM): 0.247
- relative viability (LXF-289; first compound 0.253 µM): 0.22
- relative viability (LXF-289; first compound 0.8 µM): 0.206
- relative viability (LXF-289; first compound 2.53 µM): 0.244
- relative viability (HARA; first compound 0.08 µM): 0.239
- relative viability (HARA; first compound 0.253 µM): 0.227
- relative viability (HARA; first compound 0.8 µM): 0.24
- relative viability (HARA; first compound 2.53 µM): 0.243
- relative viability (NCI-H2228; first compound 0.08 µM): 0.554
- relative viability (NCI-H2228; first compound 0.253 µM): 0.509
- relative viability (NCI-H2228; first compound 0.8 µM): 0.495
- relative viability (NCI-H2228; first compound 2.53 µM): 0.608
- relative viability (SW 1573; first compound 0.08 µM): 0.565
- relative viability (SW 1573; first compound 0.8 µM): 0.537
- relative viability (SW 1573; first compound 2.53 µM): 0.556
- relative viability (PC-3 [JPC-3]; first compound 0.08 µM): 0.989
- relative viability (PC-3 [JPC-3]; first compound 0.253 µM): 1.02
- relative viability (PC-3 [JPC-3]; first compound 0.8 µM): 1.01
- relative viability (PC-3 [JPC-3]; first compound 2.53 µM): 1.12
- relative viability (NCI-H1792; first compound 0.08 µM): 0.872
- relative viability (NCI-H1792; first compound 0.253 µM): 0.664
- relative viability (NCI-H1792; first compound 0.8 µM): 0.635
- relative viability (NCI-H1792; first compound 2.53 µM): 0.827
- relative viability (NCI-H1993; first compound 0.08 µM): 0.565
- relative viability (NCI-H1993; first compound 0.253 µM): 0.63
- relative viability (NCI-H1993; first compound 0.8 µM): 0.481
- relative viability (NCI-H1993; first compound 2.53 µM): 0.741
